Test results taken from US20120258944A1, “ANTIOXIDANTS FOR USE IN THERAPY” (priority 2009, published 2012).

Legend:
[1] = tested on: human Neutrophils and human PBMCs; assay: Intracellular ROS, luminol luminescence with SOD and catalase, PMA or fMLF stimulated cells; assay type: cell-based; settings: PMA or fMLF 30 ng/ml; compounds 120, 60, 30 microM; FIG. 5-8
Protocol: (§1) Validation was performed by stimulating cells with PMA and fMLF. When treated with the antioxidants, altered level of ROS production from the cells was measured using luminometry. Both intracellular and extracellular effect on ROS on the cells was analyzed using isoluminol (extracellular) and luminol (intracellular when co-administered with SOD and catalase) (Dahlgren et al. “Respiratory burst in human neutrophils”, Journal of Immunological Methods 232 1999; 3-14).
The luminol reagent buffer is made of HBSS buffer (with Ca^2+), luminol and SOD/Catalase.
(§2) 1) Add 25 microL of antioxidants to assay plate to get proper concentrations in a total reaction volume of 100 micro-L. 2) Add 25 microL of PMA (120 ng/ml) and fMLF (120 ng/ml) to assay plate to get concentration of 30 ng/ml in a total reaction volume of 100 microL. 3) Add 50 microL of cell suspension (2 million cells/ml) to each well. Immediately after addition of cell suspension initiate luminescence measurement; the reaction starts at once when the cells are added to the assay plate. Measurement points are taken at 1-minute intervals for 25 minutes. Data is presented as AUC (Area Under Curve) by a summary of all collected measurements for each well.
FIG. 5: Intracellular ROS analyzed by Luminol (intracellular ROS) induced luminescence in human Neutrophils. ROS induced with PMA (30 ng/ml) with 200, 100 or 0 microM NAC. Concentrations of compounds 120, 60, 30 and 0 microM final concentrations.
FIG. 6: Intracellular ROS analyzed by Luminol (intracellular ROS) induced luminescence in human Neutrophils. ROS induced with fMLF (30 ng/ml) with 200, 100 or 0 microM NAC. Concentrations of compounds 120, 60, 30 and 0 microM final concentrations.
FIG. 7: Intracellular ROS analyzed by Luminol (intracellular ROS) induced luminescence in human PBMCs. ROS induced with PMA (30 ng/ml) with 200, 100 or 0 microM NAC. Concentrations of compounds 120, 60, 30 and 0 microM final concentrations.
FIG. 8: Intracellular ROS analyzed by Luminol (intracellular ROS) induced luminescence in human PBMCs. […]

THP-1 cells = assay: Chemiluminescence (Diogenes), ROS production in PMA stimulated THP-1 cells; assay type: cell-based, human
Description: We investigated the capacity of the material to quench ROS produced by freshly isolated human neutrophils or THP-1 cells (human acute monocytic leukemia cell line) stimulated with PMA (Phorbol Myristate Acetate). The antioxidant capacity of selenide 1 was again compared to those of Trolox, a water soluble derivative of vitamin E, which is commonly used in biological and biochemical applications to reduce oxidative stress or damage.
The generation of oxygen free radicals over time from macrophages (THP-1) was monitored for 180 minutes in 96-well white optiplates (Greiner) using a using a TECAN reader and Diogenes chemiluminescence kit (National Diagnostics). Approximately 200 000 THP-1 cells diluted in HBSS containing different concentrations of the antioxidants 1 and Trolox were added per well to a 96 well plate together with the Diogenes reagent 20 v/% (following the manufacturers recommendations) and 40 micro-M Phorbol Myristate Acetate (PMA). Luminescence intensity was read every 6 min. The measurements were commonly performed on quadruplicate samples

[2] = two-phase model, N-acetylcysteine in the aqueous phase; cited from earlier work
PLB985 cells = assay: Resazurin based in vitro toxicology assay (TOX8); assay type: cell-based, human; settings: PLB985, 3 hours, up to 120 μM
Protocol: The viability of cells treated with the compounds was also analyzed using a Resazurin based in vitro Toxicology Assay Kit (SigmaAldrich TOX8). Resazurin systems measure the metabolic activity of living cell. Resazurin in its oxidized form (blue) is reduced (red) by living cells and the amount of dye conversion is measured fluorometrically or spectrophotometrically indicating the degree of cytotoxicity.
1) 75 micro-l of PLB985 cells (1 million cells/ml) is mixed with 25 micro-l of Compounds 1, 2, 3 and D (480, 120, 15 and 0.48 micro-M) in a 96 well plate in duplicates. 2) 10 micro-L of Resazurin solution is added to each well and the plate is incubated at 37° C. for 3 hours. 3) Spectrophotometrical analysis is performed in plate reader at 600 and 690 nm.
FIG. 18: Cell viability of compounds in human PLB-985 cell line. Concentrations of compounds 120; 60; 30; 3.75; 0.12 and […] final concentrations. Measurement that indicates cell cytotoxicity (In vitro toxicology assay, TOX-8). The bars show increased level of cytotoxicity (analysis of absorbance of 600 nm substracted with absorbance 690 nm).

[3] = tested on: human umbilical vein endothelial cells (HUVEC); assay: XTT in vitro toxicology test in human umbilical vein endothelial cells; assay type: cell-based; settings: human
Protocol: As a negative control, cells incubated with medium containing 0.5% DMSO (corresponding to the highest DMSO concentration above) was used. As a positive control, cells were incubated in the presence of 20% EtOH.
After the incubation with the compounds, the wells were washed with PBS to remove substances which could interfere with the assay. 40 μl of fresh medium 200 without phenol red was added together with 10 μl XTT substance (according to the manufacturer's instructions). The plates were incubated for 8 hrs and the colour development was monitored by measuring the absorbance at 450 nm.
After incubation, the number of viable cells was assessed by observing the amount of metabolized XTT (2,3-bis[2-methoxy-4-nitro-5-sulphophenyl]-2H-tetrazolium-5-carboxyanilide inner salt).

[4] = tested on: human neutrophils and PBMCs, rat neutrophils and PBMCs, human PLB-985 cell line; assay: Extracellular ROS, isoluminol luminescence, PMA or fMLF stimulated cells; assay type: cell-based; settings: PMA or fMLF 30 ng/ml; compounds 120 to 0 microM; FIG. 1-4, 9-12, 14-17
Protocol: as §1
The isoluminol reagent buffer was made of HBSS buffer (with Ca^2+), Isoluminol and HRP.
as §2
FIG. 1: Extracellular ROS analyzed by Isoluminol induced luminescence in human Neutrophils. ROS induced with PMA (30 ng/ml) with 200, 100 or 0 microM NAC. Concentrations of compounds 120, 60, 30 and 0 microM final concentrations.
FIG. 9: Extracellular ROS analyzed by Isoluminol induced luminescence in rat Neutrophils. ROS induced with PMA (30 ng/ml) with 200, 100 or 0 microM NAC. Concentrations of compounds 120, 60, 30 and 0 microM final concentrations.
FIG. 11: Extracellular ROS analyzed by Isoluminol induced luminescence in human PLB-985 cell line. ROS induced with PMA (30 ng/ml) with 200, 100 or 0 microM NAC. Concentrations of compounds 120, 60, 30 and 0 microM final concentrations.

CC1Cc2cc(O)ccc2[Se]1 (stereo not shown) [Compound 1]
antioxidative effect on intracellular ROS [1]: strong antioxidative effect | effect on ROS production in THP-1 (THP-1 cells; 1, 10 and 20 micro-M, FIG. 24): clear, dose dependent, quenching/inhibiting effect | quenching of ROS from THP-1 compared with Trolox (THP-1 cells; 20 micro-M each): considerably more effective than Trolox | Inhibited Rate of Linoleic Acid Peroxidation (Rinh) [2]: 69 µM/h | cytotoxicity (PLB985 cells): no signs of cytotoxicity | relative toxicity among the compounds [3]: far less toxic than compounds 2 and 3 | toxic concentration ([3]; 24 h): 500 µM | toxic concentration ([3]; 48 h): 500 µM | toxic concentration ([3]; 72 h): 200 µM | antioxidative effect on extracellular ROS [4]: antioxidative effect on extra cellular ROS
